These results are taken from publication PMC7827406, “Structure–Activity Relationship (SAR) Study of Spautin-1 to Entail the Discovery of Novel NEK4 Inhibitors” (International Journal of Molecular Sciences, 2021).

Holding throughout (test): biochemical
Holding throughout (set-up): Eurofins KinaseProfiler full panel at Km ATP, residual kinase activity (%) relative to DMSO

One assay concerns the target T1, BrSK2(h) (Homo sapiens, UniProt Q8IWQ3).
T1 sequence (Q8IWQ3 1-736): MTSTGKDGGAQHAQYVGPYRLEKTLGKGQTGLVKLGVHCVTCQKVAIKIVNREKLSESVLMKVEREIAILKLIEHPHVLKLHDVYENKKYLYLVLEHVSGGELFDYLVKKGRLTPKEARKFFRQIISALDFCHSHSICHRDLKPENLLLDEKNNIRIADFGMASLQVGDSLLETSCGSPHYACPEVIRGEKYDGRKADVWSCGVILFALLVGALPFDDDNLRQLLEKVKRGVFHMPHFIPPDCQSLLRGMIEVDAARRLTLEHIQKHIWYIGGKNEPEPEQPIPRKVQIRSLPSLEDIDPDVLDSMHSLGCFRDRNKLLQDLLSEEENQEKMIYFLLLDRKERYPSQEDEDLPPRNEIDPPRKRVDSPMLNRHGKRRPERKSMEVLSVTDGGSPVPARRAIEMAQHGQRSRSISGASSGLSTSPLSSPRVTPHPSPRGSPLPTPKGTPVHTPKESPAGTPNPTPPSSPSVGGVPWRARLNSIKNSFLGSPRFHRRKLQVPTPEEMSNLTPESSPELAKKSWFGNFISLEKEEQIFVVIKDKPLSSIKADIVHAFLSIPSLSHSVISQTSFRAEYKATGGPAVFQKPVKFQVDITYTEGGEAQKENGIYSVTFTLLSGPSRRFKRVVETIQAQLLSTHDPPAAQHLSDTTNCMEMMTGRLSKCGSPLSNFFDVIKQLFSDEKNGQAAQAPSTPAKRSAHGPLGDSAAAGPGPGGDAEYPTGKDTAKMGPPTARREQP
Put shortly: (§1)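 Radiometric kinase activity assays were run with ATP at Km and compounds at 10 µM, and remaining activity (%) was reported. A separate competitive binding screen measured DNA-tagged kinase displaced from immobilized active-site ligands by qPCR, giving percent kinase still bound at 10 µM compound in DMSO.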

In another assay the target is CDK2/cyclinE(h) (Homo sapiens, UniProt P24941). Put shortly:
as §1

A further assay deals with T2, CaMKIγ(h) (Homo sapiens, UniProt Q96NX5).
T2 construct: gene CAMK1G
T2 sequence (Q96NX5 whole entry): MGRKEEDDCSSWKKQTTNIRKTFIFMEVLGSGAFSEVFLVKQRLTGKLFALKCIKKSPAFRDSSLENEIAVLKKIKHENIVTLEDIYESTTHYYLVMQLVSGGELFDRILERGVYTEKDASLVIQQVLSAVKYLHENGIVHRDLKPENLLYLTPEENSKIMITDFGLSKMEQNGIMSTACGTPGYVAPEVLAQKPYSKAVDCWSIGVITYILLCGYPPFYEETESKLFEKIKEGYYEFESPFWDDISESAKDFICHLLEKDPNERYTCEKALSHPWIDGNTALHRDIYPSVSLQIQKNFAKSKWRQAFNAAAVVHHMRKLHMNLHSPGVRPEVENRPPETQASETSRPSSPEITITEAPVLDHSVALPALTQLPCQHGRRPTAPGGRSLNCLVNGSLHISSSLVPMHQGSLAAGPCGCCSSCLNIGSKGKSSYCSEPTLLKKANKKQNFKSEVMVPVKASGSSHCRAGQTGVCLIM
Put shortly:
as §1

For another assay, the target named is DDR1(h) (Homo sapiens, UniProt Q08345). Put shortly: as §1
DDR1(h), sequence (Q08345 whole entry): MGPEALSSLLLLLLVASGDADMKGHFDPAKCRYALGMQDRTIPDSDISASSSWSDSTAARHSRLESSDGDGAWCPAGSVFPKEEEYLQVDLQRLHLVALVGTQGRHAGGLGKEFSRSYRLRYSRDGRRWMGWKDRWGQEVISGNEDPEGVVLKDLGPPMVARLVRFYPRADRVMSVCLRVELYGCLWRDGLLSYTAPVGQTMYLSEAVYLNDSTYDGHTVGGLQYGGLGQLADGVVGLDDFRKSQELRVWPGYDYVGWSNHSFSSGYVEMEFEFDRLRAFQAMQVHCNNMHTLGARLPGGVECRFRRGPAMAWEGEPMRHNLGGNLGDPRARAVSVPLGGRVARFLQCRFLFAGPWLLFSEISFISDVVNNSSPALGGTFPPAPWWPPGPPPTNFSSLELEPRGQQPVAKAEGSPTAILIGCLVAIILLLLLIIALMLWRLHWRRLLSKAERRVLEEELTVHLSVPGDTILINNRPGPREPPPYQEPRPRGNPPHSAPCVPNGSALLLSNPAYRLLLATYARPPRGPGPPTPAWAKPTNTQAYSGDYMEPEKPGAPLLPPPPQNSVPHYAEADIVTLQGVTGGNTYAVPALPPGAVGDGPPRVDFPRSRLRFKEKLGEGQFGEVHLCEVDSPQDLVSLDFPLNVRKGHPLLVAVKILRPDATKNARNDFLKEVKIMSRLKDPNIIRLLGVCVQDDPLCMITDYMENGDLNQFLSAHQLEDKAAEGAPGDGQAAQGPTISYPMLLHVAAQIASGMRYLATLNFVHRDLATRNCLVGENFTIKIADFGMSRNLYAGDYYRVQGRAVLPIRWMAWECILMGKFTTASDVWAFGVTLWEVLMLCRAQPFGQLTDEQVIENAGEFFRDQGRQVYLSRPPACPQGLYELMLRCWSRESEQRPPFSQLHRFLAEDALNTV
A further assay concerns the target T3, GRK3(h) (Homo sapiens, UniProt P35626).
T3 sequence (P35626 1-688): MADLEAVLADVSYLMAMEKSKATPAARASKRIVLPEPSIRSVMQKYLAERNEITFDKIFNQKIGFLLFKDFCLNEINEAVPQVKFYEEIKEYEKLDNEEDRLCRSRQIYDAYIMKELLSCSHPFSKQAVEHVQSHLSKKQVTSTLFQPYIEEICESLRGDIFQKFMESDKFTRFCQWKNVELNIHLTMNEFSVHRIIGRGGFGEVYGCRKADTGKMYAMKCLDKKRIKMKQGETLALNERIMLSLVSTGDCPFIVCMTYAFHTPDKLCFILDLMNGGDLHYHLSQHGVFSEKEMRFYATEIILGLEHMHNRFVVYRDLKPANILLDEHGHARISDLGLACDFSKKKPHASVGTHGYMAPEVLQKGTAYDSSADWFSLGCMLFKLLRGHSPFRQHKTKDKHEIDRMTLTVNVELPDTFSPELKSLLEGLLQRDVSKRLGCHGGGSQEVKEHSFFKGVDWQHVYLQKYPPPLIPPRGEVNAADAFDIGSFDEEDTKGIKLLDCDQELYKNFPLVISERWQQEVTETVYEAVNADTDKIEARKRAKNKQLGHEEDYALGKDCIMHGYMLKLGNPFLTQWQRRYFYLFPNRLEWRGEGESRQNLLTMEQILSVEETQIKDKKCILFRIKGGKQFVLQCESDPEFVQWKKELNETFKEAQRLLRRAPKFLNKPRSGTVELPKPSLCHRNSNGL
The procedure, abridged:
as §1

The next assay deals with GRK6(h) (Homo sapiens, UniProt P43250). The procedure, abridged:
as §1

Another assay deals with Hck(h) (Homo sapiens, UniProt P08631). Put shortly:
as §1

The target in another assay is Lyn(h) (Homo sapiens, UniProt P07948). The procedure, abridged:
as §1

Another assay deals with T4, PI3KC2a(h) (Homo sapiens, UniProt O00443).
T4 construct: gene PIK3C2A
T4 sequence (O00443 whole entry): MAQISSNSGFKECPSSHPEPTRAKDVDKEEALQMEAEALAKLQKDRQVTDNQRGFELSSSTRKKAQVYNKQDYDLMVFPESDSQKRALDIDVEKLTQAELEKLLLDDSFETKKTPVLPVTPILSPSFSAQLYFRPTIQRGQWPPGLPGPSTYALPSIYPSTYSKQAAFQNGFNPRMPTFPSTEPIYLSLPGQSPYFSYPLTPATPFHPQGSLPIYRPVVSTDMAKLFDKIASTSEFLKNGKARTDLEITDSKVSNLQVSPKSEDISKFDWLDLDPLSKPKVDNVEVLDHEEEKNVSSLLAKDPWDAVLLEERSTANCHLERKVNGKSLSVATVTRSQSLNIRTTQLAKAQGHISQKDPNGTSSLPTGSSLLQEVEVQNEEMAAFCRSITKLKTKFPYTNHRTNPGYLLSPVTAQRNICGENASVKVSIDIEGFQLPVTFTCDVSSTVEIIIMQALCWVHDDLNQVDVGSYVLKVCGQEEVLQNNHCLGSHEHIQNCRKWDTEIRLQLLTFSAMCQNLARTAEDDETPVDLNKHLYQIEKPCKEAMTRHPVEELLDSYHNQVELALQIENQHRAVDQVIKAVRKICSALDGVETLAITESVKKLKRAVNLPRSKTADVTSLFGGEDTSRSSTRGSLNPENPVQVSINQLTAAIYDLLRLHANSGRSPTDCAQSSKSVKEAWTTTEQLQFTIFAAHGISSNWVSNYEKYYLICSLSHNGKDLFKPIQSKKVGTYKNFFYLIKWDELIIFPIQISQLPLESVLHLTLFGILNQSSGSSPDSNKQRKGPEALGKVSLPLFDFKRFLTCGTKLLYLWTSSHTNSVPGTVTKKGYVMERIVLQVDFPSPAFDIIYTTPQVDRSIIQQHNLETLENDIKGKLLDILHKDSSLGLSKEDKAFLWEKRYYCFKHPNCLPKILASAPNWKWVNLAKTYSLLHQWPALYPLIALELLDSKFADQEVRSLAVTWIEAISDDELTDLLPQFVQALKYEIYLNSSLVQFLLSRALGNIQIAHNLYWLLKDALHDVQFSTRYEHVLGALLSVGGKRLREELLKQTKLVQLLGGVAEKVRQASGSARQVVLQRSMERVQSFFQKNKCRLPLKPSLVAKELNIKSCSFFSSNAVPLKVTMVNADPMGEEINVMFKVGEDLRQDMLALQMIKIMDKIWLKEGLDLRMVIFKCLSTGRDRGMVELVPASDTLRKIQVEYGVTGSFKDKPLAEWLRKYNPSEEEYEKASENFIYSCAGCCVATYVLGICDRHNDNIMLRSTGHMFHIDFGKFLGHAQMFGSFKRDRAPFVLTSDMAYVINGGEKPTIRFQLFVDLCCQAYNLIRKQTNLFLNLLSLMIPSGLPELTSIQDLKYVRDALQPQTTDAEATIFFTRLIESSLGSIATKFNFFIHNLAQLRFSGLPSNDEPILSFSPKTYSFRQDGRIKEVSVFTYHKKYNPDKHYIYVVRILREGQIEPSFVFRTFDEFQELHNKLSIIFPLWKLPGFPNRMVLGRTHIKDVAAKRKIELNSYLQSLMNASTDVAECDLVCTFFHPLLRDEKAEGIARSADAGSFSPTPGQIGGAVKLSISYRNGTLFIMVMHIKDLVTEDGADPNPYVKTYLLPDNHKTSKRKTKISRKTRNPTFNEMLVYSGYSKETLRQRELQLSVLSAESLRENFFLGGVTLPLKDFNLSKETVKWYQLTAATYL
Put shortly: as §1

The mark [1] stands for this setting: read-out: Residual activity (%) Spautin-1 5aa.
[2] abbreviates: read-out: Residual activity (%) 5as.
[3] abbreviates: read-out: Residual activity (%) 5at.
Setting [4] is: read-out: Residual activity (%) 5ay.

Where two headings read alike, the source gives them in different places.

Hck(h), sequence (P08631 whole entry): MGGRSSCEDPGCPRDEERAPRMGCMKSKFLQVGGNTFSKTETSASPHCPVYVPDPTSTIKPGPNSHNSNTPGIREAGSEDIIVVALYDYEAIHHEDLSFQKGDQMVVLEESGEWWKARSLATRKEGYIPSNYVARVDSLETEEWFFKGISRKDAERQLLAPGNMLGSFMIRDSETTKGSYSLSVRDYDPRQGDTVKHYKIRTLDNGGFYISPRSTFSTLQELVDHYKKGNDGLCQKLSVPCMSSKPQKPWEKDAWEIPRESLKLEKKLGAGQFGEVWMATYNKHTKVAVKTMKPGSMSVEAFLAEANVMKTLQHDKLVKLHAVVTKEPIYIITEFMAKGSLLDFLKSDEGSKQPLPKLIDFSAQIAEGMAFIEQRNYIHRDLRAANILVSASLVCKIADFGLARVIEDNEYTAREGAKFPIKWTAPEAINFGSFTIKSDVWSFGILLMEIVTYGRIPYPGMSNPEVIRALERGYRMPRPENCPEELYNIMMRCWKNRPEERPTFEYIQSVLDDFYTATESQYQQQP
Lyn(h), sequence (P07948 whole entry): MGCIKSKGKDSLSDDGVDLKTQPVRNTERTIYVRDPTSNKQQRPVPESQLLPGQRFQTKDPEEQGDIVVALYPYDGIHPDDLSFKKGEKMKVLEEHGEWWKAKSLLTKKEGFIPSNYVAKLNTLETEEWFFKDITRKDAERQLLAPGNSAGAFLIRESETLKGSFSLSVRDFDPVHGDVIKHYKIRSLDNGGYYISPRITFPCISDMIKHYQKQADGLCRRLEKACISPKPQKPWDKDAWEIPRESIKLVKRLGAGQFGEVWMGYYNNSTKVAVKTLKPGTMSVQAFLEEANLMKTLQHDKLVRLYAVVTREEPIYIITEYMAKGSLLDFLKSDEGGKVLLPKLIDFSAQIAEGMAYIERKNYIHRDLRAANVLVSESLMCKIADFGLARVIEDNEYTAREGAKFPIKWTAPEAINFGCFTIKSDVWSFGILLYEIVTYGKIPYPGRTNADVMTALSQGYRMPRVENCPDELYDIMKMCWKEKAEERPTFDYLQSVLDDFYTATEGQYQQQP
GRK6(h), sequence (P43250 whole entry): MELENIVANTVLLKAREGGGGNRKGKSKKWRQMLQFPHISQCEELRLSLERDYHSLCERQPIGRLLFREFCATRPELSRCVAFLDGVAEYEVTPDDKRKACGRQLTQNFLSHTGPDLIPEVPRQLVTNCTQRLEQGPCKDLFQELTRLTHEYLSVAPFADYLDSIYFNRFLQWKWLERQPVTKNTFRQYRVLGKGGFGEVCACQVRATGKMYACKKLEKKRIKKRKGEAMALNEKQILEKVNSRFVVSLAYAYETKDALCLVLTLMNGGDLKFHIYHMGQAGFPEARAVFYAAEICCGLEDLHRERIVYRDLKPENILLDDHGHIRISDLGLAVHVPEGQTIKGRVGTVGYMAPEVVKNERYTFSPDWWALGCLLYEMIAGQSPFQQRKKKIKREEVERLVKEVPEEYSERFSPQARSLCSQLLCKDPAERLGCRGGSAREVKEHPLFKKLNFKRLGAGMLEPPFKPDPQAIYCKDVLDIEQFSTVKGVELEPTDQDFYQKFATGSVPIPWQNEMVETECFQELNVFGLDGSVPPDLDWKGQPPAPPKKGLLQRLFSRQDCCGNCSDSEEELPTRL

`Fc1ccc(CNc2ncnc3ccc(F)cc23)cc1` [5aa, 6-Fluoro-N-(4-fluorobenzyl)-4-Quinazolinamine]: the remaining activity at 10 µM at BrSK2(h) (setting [1]) was determined as 79%; at CDK2/cyclinE(h) (setting [1]) it was 69%; on CaMKIγ(h) (setting [1]) it was 95%; at DDR1(h) (setting [1]), 65%; at GRK3(h) (setting [1]), 95%; on GRK6(h) (setting [1]), 100%. The remaining activity at 10 µM on Hck(h) (setting [1]) came out at 72%; at Lyn(h) (setting [1]), 103%; on PI3KC2a(h) (setting [1]), 102%.
For `Fc1ccc(CCNc2ncnc3ccc(F)cc23)cc1` [5as, 6-Fluoro-N-[2-(4-Fluorophenyl)Ethyl]-4-Quinazolinamine], the remaining activity at 10 µM is 65% on BrSK2(h) (setting [2]); 103% on CDK2/cyclinE(h) (setting [2]); 94% on CaMKIγ(h) (setting [2]); 29% on DDR1(h) (setting [2]); 92% at GRK3(h) (setting [2]); 104% at GRK6(h) (setting [2]). The remaining activity at 10 µM on Hck(h) (setting [2]) is 74%; on Lyn(h) (setting [2]), 89%; at PI3KC2a(h) (setting [2]) it was 100%.
With `Fc1ccc2ncnc(NCCc3ccc(Cl)cc3)c2c1` [5at, N-[2-(4-Chlorophenyl)Ethyl]-6-Fluoro-4-Quinazolinamine], the remaining activity at 10 µM was 71% at BrSK2(h) (setting [3]); 54% at CDK2/cyclinE(h) (setting [3]); 87% at CaMKIγ(h) (setting [3]); 39% on DDR1(h) (setting [3]); 97% on GRK3(h) (setting [3]); 99% on GRK6(h) (setting [3]). Moreover, the remaining activity at 10 µM was 62% at Hck(h) (setting [3]), 91% at Lyn(h) (setting [3]) and 105% on PI3KC2a(h) (setting [3]).
For the compound `COc1ccc2ncnc(Nc3cccc(F)c3)c2c1` [5ay, N-(3-Fluorophenyl)-6-Methoxy-4-Quinazolinamine], the remaining activity at 10 µM at BrSK2(h) (setting [4]) turned out to be 42%; at CDK2/cyclinE(h) (setting [4]), 89%; at CaMKIγ(h) (setting [4]), 94%; at DDR1(h) (setting [4]), 7%; at GRK3(h) (setting [4]) it was 93%; at GRK6(h) (setting [4]), 110%. In addition, the remaining activity at 10 µM was 64% on Hck(h) (setting [4]), 80% on Lyn(h) (setting [4]) and 106% on PI3KC2a(h) (setting [4]).
